Test results taken from publication PMC10180155, “Thieno-Thiazolostilbenes, Thienobenzo-Thiazoles, and Naphtho-Oxazoles: Computational Study and Cholinesterase Inhibitory Activity” (Molecules, 2023).

Legend:
[1] = molecular target: T1, BChE (EC 3.1.1.8, equine serum) (Equus caballus, UniProt P81908); assay: biochemical; assay type: biochemical; conditions: for Inhibition (%) BChE: concentration for the maximal effect measured
T1 construct: BChE (EC 3.1.1.8, equine serum); purchased Sigma-Aldrich; host or cells: equine serum
Procedure: (§1) AChE and BChE inhibition were determined using a modified spectrophotometric Ellman’s method. Acetylthiocholine iodide (ATChI), S-butyrylthiocholine iodide (BTChI), AChE (EC 3.1.1.7, Electrophorus electricus, Type: V-S), BChE (EC 3.1.1.8, equine serum), and Trisma base were purchased from Sigma-Aldrich (St. Louis, MO, USA), while Ellman’s reagent 5,50-dithiobis-(2-nitrobenzoic acid) (DTNB) was purchased from Zwijndrecht (Antwerpen, Belgium). The reaction mixture contained 180 µL Tris-HCl buffer (50 mM, pH 8.0) or phosphate buffer, 10 µL of the enzyme (final concentration 0.03 U/mL), 10 µL of the tested solution, and 10 μL of DTNB (final concentration 0.3 mM). The reaction started with adding 10 μL of ATChI/BTChI (final concentration of 0.5 mM). The developing yellow color was measured at 405 nm over 6 min at room temperature using a 96-well microplate reader (IRE 96, SFRI Medical Diagnostics, Bordeaux, France). The experiment was run in triplicate. The percentage of enzyme inhibition was calculated from measured data according to the equation: Inhibition (%) = [(Ac − AT)/A.C.]∙100, where A.C. is the enzyme activity without the test sample, and AT is the enzyme activity with the test sample, calculated as mean values ± standard deviation. In the control measurement, the tested compound was replaced by a buffer solution. Non-enzymatic hydrolysis was measured as blank for each measurement. The IC50 value was calculated by a nonlinear fit of compound concentration (log) values vs. response.

[2] = molecular target: T2, AChE (EC 3.1.1.7, Electrophorus electricus, Type: V-S) (Electrophorus electricus, UniProt O42275); assay: AChE inhibition, modified spectrophotometric Ellman's method; assay type: biochemical
T2 construct: purchased Sigma-Aldrich Type: V-S
Procedure: as §1, with “The experiment was run in triplicate.” left out, “In the control measurement, the tested compound was replaced by a buffer solution.” left out

[3] = Solubility as observed in the cholinesterase measurements; assay type: physicochemical; conditions: did not allow measurements at higher concentrations
Source text: Tested compounds were active only toward BChE, and the results are presented in Table 2 and Figure 8 and Figure 9. Among stilbene derivatives, the best result is achieved by the derivative with a phenolic ring trans-8a and the thiophene derivative trans-1a (Table 2, Figure 9). […] Replacement of phenol from trans-8a with thiophene in trans-1a reduces the IC50 value by seven times. Replacing the methyl group from trans-1a with an isopropyl group in trans-2a (along with the inversion of the sulfur and nitrogen position) also reduces the activity. Furthermore, a change in geometry from trans-1a to cis-1a also diminished inhibitory activity, as was observed earlier.

T1 sequence (P81908 whole entry): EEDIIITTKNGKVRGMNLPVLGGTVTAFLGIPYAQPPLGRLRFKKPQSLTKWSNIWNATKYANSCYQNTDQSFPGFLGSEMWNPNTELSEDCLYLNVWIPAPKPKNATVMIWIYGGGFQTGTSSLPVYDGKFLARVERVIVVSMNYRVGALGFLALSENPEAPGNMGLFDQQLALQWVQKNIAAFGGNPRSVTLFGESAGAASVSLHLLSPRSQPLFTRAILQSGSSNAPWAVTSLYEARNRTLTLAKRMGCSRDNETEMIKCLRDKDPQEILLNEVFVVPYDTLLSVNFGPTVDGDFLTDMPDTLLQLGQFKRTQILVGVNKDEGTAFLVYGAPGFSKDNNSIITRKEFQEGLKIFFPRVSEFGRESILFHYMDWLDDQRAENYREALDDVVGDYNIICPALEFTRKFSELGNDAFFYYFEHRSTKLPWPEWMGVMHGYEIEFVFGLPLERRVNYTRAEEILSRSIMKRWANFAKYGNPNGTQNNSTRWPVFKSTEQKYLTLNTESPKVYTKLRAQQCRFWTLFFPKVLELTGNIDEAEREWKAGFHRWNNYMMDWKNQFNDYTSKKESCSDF
T2 sequence (O42275 24-633): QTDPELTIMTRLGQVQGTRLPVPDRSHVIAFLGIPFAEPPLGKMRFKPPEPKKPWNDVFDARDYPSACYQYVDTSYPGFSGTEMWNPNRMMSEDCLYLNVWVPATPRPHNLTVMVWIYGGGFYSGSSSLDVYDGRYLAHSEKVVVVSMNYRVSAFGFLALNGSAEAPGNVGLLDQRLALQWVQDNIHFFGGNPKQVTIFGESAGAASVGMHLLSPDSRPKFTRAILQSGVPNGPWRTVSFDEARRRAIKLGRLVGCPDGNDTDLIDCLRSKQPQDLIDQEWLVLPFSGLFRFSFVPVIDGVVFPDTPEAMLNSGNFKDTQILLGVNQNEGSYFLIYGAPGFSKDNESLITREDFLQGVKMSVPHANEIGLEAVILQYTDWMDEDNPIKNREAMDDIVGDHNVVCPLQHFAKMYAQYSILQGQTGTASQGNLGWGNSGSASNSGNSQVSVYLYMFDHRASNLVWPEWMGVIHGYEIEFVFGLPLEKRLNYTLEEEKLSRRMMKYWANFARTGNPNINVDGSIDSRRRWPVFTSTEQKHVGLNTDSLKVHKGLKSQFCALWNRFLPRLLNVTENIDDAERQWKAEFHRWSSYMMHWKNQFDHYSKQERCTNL

`Cc1ccc2ccc3ncoc3c2c1` [Compound 14] showed an IC50 [1] of 155 µM and an inhibition at 173.6 µM ([1]; read-out: Inhibition (%) BChE) of 63.3%.

For `Cc1nc2ccc3ccc([N+](=O)[O-])cc3c2o1` [Compound 17], the inhibition at 159.5 µM ([1]; read-out: Inhibition (%) BChE) was 16.8%.

Work on `Cc1cccc2c1ccc1ocnc12` [Compound 23] yielded an inhibition at 297.5 µM ([1]; read-out: Inhibition (%) BChE) of 20.6%.

Work on `CN(C)c1ccc2ccc3ocnc3c2c1` [Compound 20] yielded an IC50 [1] of 184 µM and an inhibition at 364.2 µM ([1]; read-out: Inhibition (%) BChE) of 82.2%.

With `c1ccc2c(c1)ccc1ncoc12` [Compound 11] the inhibition at 188 µM ([1]; read-out: Inhibition (%) BChE) was 0.9%.

For `Cc1nc2c(ccc3sccc32)s1` [Compound 1, 2-methylthieno[2′,3′:5,6]benzo[1,2-d]thiazole], the IC50 [1] was 107 µM and the inhibition at 500 µM ([1]; read-out: Inhibition (%) BChE) was 79.1%.

In the case of `O=[N+]([O-])c1ccc2ccc3ncoc3c2c1` [Compound 16], the IC50 [2] is reported as 131 µM, the inhibition at 201.7 µM ([2]; read-out: % of inhibition AChE) is reported as 63.8% and the IC50 [1] is reported as 137 µM. It also gave an inhibition at 201.7 µM ([1]; read-out: Inhibition (%) BChE) of 64.9%.

`Clc1ccc2ccc3ocnc3c2c1` [Compound 21] showed an inhibition at 312.3 µM ([1]; read-out: Inhibition (%) BChE) of 32.6%.

With “(E)-2-isopropyl-5-(2-(thiophen-2-yl)vinyl)thiazole [trans-2a]” the “Inhibition (%) BChE” value ([1]; 250 μM) was 45.8 (250) %.

For `CCC(C)Nc1ncc(/C=C/c2cccs2)s1` (stereo not drawn) [trans-9a, (E)-N-(sec-butyl)-5-(2-(thiophen-2-yl)vinyl)thiazol-2-amine], the “solubility (in words)” value [3] was “limited solubility” and the inhibition at 100 µM ([1]; read-out: Inhibition (%) BChE) was 47.7%.

For `CC(=O)Nc1ncc(C=Cc2cccs2)s1` (mixture of isomers) [Compound 5a, N-(5-(2-(thiophen-2-yl)vinyl)thiazol-2-yl)acetamide], the “inhibitory activity toward BChE (in words)” value [1] was “ineffective inhibitors” and the inhibition at 250 µM ([1]; read-out: Inhibition (%) BChE) was 30.6%.

With `Clc1nc(N2CCCC2)sc1/C=C/c1cccs1` [trans-10a, (E)-4-chloro-2-(pyrrolidin-1-yl)-5-(2-(thiophen-2-yl)vinyl)thiazole] the “solubility (in words)” value [3] was “limited solubility” and the inhibition at 100 µM ([1]; read-out: Inhibition (%) BChE) was 25.3%.

In the case of `CC(=O)Nc1nc2c(ccc3sccc32)s1` [Compound 5, N-(thieno[2′,3′:5,6]benzo[1,2-d]thiazol-2-yl)acetamide], the inhibition at 250 µM ([1]; read-out: Inhibition (%) BChE) is reported as 24.9%.

`Cc1ccc2ccc3nc(C)oc3c2c1` [Compound 15] showed an IC50 [1] of 44.4 µM and an inhibition at 368.6 µM ([1]; read-out: Inhibition (%) BChE) of 98.3%.

With `COc1ccc2ccc3nc(C)oc3c2c1` [Compound 19] the IC50 [1] was 170 µM and the inhibition at 405.2 µM ([1]; read-out: Inhibition (%) BChE) was 81.9%.

In the case of `Clc1ncc(/C=C/c2cccs2)s1` [trans-3a, (E)-2-chloro-5-(2-(thiophen-2-yl)vinyl)thiazole], the “inhibitory activity toward BChE (in words)” value [1] is reported as “ineffective inhibitors” and the inhibition at 250 µM ([1]; read-out: Inhibition (%) BChE) is reported as 10%.

In the case of “(Z)-2-isopropyl-5-(2-(thiophen-2-yl)vinyl)thiazole [cis-2a]”, the “Inhibition (%) BChE” value ([1]; 250 μM) is reported as 45.5 (250) %.

With “(E)-2-methyl-5-(2-(thiophen-2-yl)vinyl)thiazole [trans-1a]” the IC50 [1] was 181 µM and the “Inhibition (%) BChE” value ([1]; 500 μM) was 64.0 (500) %.

Work on `Fc1ccc2ccc3ocnc3c2c1` [Compound 22] yielded an IC50 [1] of 128 µM and an inhibition at 315.8 µM ([1]; read-out: Inhibition (%) BChE) of 69.9%.

With “(E)-2-(2-(2-methylthiazol-5-yl)vinyl)phenol [trans-8a]” the IC50 [1] was 25.2 µM and the “Inhibition (%) BChE” value ([1]; 250 μM) was 80.5 (250) %.

In the case of `CC(C)c1nc2ccc3sccc3c2s1` [Compound 2, 2-isopropylthieno[3′,2′:3,4]benzo[1,2-d]thiazole], the inhibition at 200 µM ([1]; read-out: Inhibition (%) BChE) is reported as 46.8%.

For `FC(F)(F)c1nc2c(ccc3sccc32)s1` [Compound 4, 2-(trifluoromethyl)thieno[2′,3′:5,6]benzo[1,2-d]thiazole], the IC50 [1] was 41.9 µM and the inhibition at 200 µM ([1]; read-out: Inhibition (%) BChE) was 70.8%.

`Clc1nc2c(ccc3sccc32)s1` [Compound 3, 2-chlorothieno[2′,3′:5,6]benzo[1,2-d]thiazole] gave an IC50 [1] of 51.1 µM and an inhibition at 250 µM ([1]; read-out: Inhibition (%) BChE) of 75.4%.

With “(Z)-2-methyl-5-(2-(thiophen-2-yl)vinyl)thiazole [cis-1a]” the “inhibitory activity toward BChE (in words)” value [1] was “ineffective inhibitors” and the “Inhibition (%) BChE” value ([1]; 500 μM) was 36.4 (500) %.

Compound `COc1ccc2ccc3ncoc3c2c1` [Compound 18] has an inhibition at 273.6 µM ([1]; read-out: Inhibition (%) BChE) of 38%.

`Cc1cccc2c1ccc1ncoc12` [Compound 13] gave an IC50 [1] of 351 µM and an inhibition at 396.8 µM ([1]; read-out: Inhibition (%) BChE) of 57.8%.

`N#Cc1cccc2c1ccc1ncoc12` [Compound 12] showed an inhibition at 176 µM ([1]; read-out: Inhibition (%) BChE) of 40.9%.
